Assay results taken from patent publication US20260146232A1, “METHODS FOR PROMOTING HOMING AND ENGRAFTMENT OF HEMATOPOIETIC STEM CELLS” (The Trustees of Indiana University, priority 2022, published 2026).

Tests used:
[1] = system: human CB CD34+ cells; assay: Chemotaxis (transwell migration) assay toward SDF-1, CB CD34+ cells; assay type: cell-based; conditions: for chemotaxis of human CB CD34+ cells toward SDF-1: 20 h
Experimental: (§1) Chemotaxis assay. Chemotaxis assays were performed in Costar 24-well trans-well plates with 6.5 mm diameter inserts with 5.0 μm pores (Corning, NY, USA). Briefly, 650 μL of IMDM medium (37° C.) that contained 0.5% bovine serum albumin (Sigma-Aldrich) and SDF-1 (0, 50 ng/mL) was added to the bottom well. Cells were suspended at 1×10^5 cells/100 μL in IMDM medium and loaded to the upper chamber of the trans-well. Trans-well plates were placed in a 37° C. incubator with 95% humidity and 5% CO2 for 4 hours. Percent migration was measured using flow cytometry with number of cells in the bottom chamber divided by number of cells placed in the upper chamber. To calculate the percent migration of CB HSCs, phenotypic HSCs was determined by surface staining and flow cytometry analysis. Human CB HSC chemotaxis was calculated as number of HSCs in the bottom chamber divided by number of HSCs loaded in the upper chamber. For AMD3100 administration, cells were treated with 5 μg/mL AMD3100 (239820, Sigma-Aldrich) for 30 min right before the chemotaxis assay.

[2] = system: CXCR4; assay: Surface CXCR4 protein level (MFI) by flow cytometry; assay type: cell-based, human; conditions: for effect of FTO inhibitor on AGII-induced CXCR4 upregulation: AGII-treated cells plus FTO inhibitor; for CXCR4 expression (MFI of cell surface CXCR4 protein level): human CB CD34+ cells treated 20 h, screen 10 μM unless otherwise stated; for effect of inhibition of mir-145 (sh-mir-145) on compound-induced CXCR4 expression: human CB CD34+ cells treated with compound and sh-mir-145
Description: (§2) Human CD34^+ CB cell collection and culture. Umbilical CB units were supplied by Cleveland Cord Blood Bank and CordUse, Orlando, FL, USA. All studies were approved by the institutional review board of the IUSM. Mononuclear cells were isolated by density gradient centrifugation and CD34^+ cells were isolated by immunomagnetic selection kit (Miltenyi Biotec, 130-046-702). […] For molecular compound treatment, all reagents were ordered from Cayman Chemical (Ann Arbor, MI, USA). Briefly, molecular compounds were added in the initiation of human CB CD34^+ cells culture, the time and concentration of each molecular compound for cell treatment was shown in figure legends.
Flow cytometry. Fresh or cultured CB cells were sorted for different phenotypes by using the following antibodies. Antibodies were used to detect CD34 (BV786, BD Biosciences, 744741), CD34 (FITC, BD Biosciences, 340668), CD45RA (Taxe-red, BD Biosciences, 562298), CD90 (BV421, BD Biosciences, 562556), CD49f (cy5.5, BD Biosciences, 562495), CD38 (PE, BD Biosciences, 560981). CD3 (BV421, BD Biosciences, 562427), CD33 (PE, BD Biosciences, 555450), CD19 (PE, BD Biosciences, 555413), CXCR4 (APC, BD Biosciences, 555976) and CD45 (APC, BD Biosciences, 555485). Gating strategy of phenotypic HSCs were shown in supplementary FIG. 2B.

[3] = system: YTHDF2; assay: Relative YTHDF2 expression level in human CB CD34+ cells; assay type: cell-based; conditions: human CB CD34+ cells treated 20 hours
Description: as §2
RNA extraction and real-time PCR. After cells were harvested by FACS, RNA was extracted by a RNeasy Mini Kit following manufacturer's protocol (Qiagen, 74106). Total RNA was reverse-transcribed by use of Superscript III kit (ThermoFisher, 18080093). Quantitative real-time PCR reactions were performed by SYBR Green PCR Master Mix (Thermo Fisher, Florence, KY, USA) and an Agilent Mx3000P QPCR System. Expression of housekeeping gene GAPDH was used as an internal control. Data are shown as relative mRNA level normalized to levels in vehicle control, set to 1.

[4] = system: mir-145; assay: Relative mir-145 expression level in human CB CD34+ cells; assay type: cell-based; conditions: human CB CD34+ cells treated 20 hours
Description: Human CD34^+ CB cell collection and culture. Umbilical CB units were supplied by Cleveland Cord Blood Bank and CordUse, Orlando, FL, USA. All studies were approved by the institutional review board of the IUSM. Mononuclear cells were isolated by density gradient centrifugation and CD34^+ cells were isolated by immunomagnetic selection kit (Miltenyi Biotec, 130-046-702). […] For molecular compound treatment, all reagents were ordered from Cayman Chemical (Ann Arbor, MI, USA). Briefly, molecular compounds were added in the initiation of human CB CD34^+ cells culture, the time and concentration of each molecular compound for cell treatment was shown in figure legends. RNA extraction and real-time PCR. After cells were harvested by FACS, RNA was extracted by a RNeasy Mini Kit following manufacturer's protocol (Qiagen, 74106). Total RNA was reverse-transcribed by use of Superscript III kit (ThermoFisher, 18080093). Quantitative real-time PCR reactions were performed by SYBR Green PCR Master Mix (Thermo Fisher, Florence, KY, USA) and an Agilent Mx3000P QPCR System. Expression of housekeeping gene GAPDH was used as an internal control. Data are shown as relative mRNA level normalized to levels in vehicle control, set to 1.

[5] = system: phenotypic HSC (CD34+ CD38- CD45RA- CD90+ CD49f+); assay: Chemotaxis (transwell migration) assay toward SDF-1, phenotypic HSCs; assay type: cell-based, human; conditions: 20 h
Experimental: as §1

[6] = system: CB CD34+ cells; assay: Colony-forming unit (CFU) assay; assay type: cell-based, human; conditions: 20 h
[7] = system: human CB CD34+ cells; assay: Long-term engraftment / limiting dilution analysis (LDA) in NSG mice; assay type: in vivo; conditions: for engraftment in NSG mice vs vehicle control (human CD45+ cells in BM): 20 h, 4 months after transplantation; for human myeloid and B-cell chimerism in BM: 10,000 CB CD34+ cells; for engraftment in secondary recipients vs vehicle: secondary NSG mice at 4 months; for SRC frequency (Poisson distribution analysis): vehicle 1/4761
Experimental: Limiting dilution analysis (LDA). Frequency of human SCID repopulating cells (SRCs) was determined by LDA as reported before. Increasing doses of GFP overexpressing CD34^+ cells (2500, 5000 or 10000 cells) were intravenously injected into sublethally irradiated NSG recipient mice (350 cGy; 137Cs source, single dose). Four months after transplantation, the percentage of GFP^+ human CD45^+ cell chimerism was analyzed by immunostaining and flow cytometry. For long-term engraftment assays that assess the self-renewal capacity of HSC, 3×10^6 BM cells from primary recipients of the 10000-cell group were intravenously transplanted into secondary sub-lethally irradiated NSG recipient mice.

[8] = system: human CB CD34+ cells; assay: Homing assay of treated human CB CD34+ cells in NSG mice; assay type: in vivo; conditions: Raloxifene 40 μM, 20 h; 500,000 cells; 24 h after transplantation
Experimental: Homing assay. Homing of human CB CD34^+ cells was evaluated in NSG mice. Molecular compounds treated or siRNA transfected human CB CD34+ cells (500,000 for each mouse) were intravenously injected into sub-lethally irradiated (350 cGy) NSG mice. After 24 h, these recipient mice were sacrificed, BM cells from each mouse were collected. Cells were stained with anti-human CD45 antibody, then resuspended in 1% formaldehyde buffer. Flow cytometry analysis was performed to determine the percentage of human CD45^+ cells. BM cells from non-transplanted NSG mice served as negative controls.

## c1cc(CN2CCCNCCNCCCNCC2)ccc1CN1CCCNCCNCCCNCC1 [AMD3100]
[1]; 5 μg/mL AMD3100 for 30 min before the chemotaxis assay
  blocking of Raloxifene- and Imatinib-enhanced chemotaxis toward SDF-1: fully blocked
[1]; AMD3100 5 μg/mL for 30 min before assay, AGII-treated cells
  blocking of AGII-enhanced migration toward SDF-1: blocked
[1]; AMD3100, Control or si-YTHDF2 transfected cells
  blocking of chemotaxis of human CB CD34+ cells to SDF-1: blocked

## Cc1noc(C)c1-c1cc(Cl)c(Nc2ccccc2C(=O)NO)c(Cl)c1 [FB23-2]
[2]
  effect of FTO inhibitor on AGII-induced CXCR4 upregulation: repressed

## CC#CCC(C)[C@H](O)/C=C/[C@@H]1[C@H]2C/C(=C/CCCC(=O)O)C[C@H]2C[C@H]1O (some centres unmarked) [Iloprost]
[2]
  CXCR4 expression (MFI of cell surface CXCR4 protein level): strongly upregulated
  effect of inhibition of mir-145 (sh-mir-145) on compound-induced CXCR4 expression: did not affect
[3]
  YTHDF2 expression: downregulated
[4]
  mir-145 expression: strongly upregulated

## Cc1ccc(NC(=O)c2ccc(CN3CCN(C)CC3)cc2)cc1Nc1nccc(-c2cccnc2)n1 [Imatinib]
[1]; Imatinib 10 μM
  chemotaxis of human CB CD34+ cells toward SDF-1: significantly enhanced
[5]; Imatinib 10 μM
  migration to SDF-1 in phenotypic HSC population: Enhanced migration
[6]; Imatinib 10 μM
  colony output vs control group: no significant difference
[7]; Imatinib 10 μM
  engraftment in NSG mice vs vehicle control (human CD45+ cells in BM): significantly elevated
[7]; Imatinib-treated cells
  human myeloid and B-cell chimerism in BM: increased
  engraftment in secondary recipients vs vehicle: Enhanced engraftment
  SRC frequency (Poisson distribution analysis): 1/1406

## Cc1ccc(Cl)c(Nc2ccccc2C(=O)O)c1Cl [Meclofenamic Acid]
[2]
  effect of FTO inhibitor on AGII-induced CXCR4 upregulation: repressed

## C[C@@H]1C[C@H]2[C@@H]3CCC4=CC(=O)C=C[C@]4(C)[C@@]3(Cl)[C@@H](O)C[C@]2(C)[C@@]1(O)C(=O)CCl [Mometasone]
[2]
  CXCR4 expression (MFI of cell surface CXCR4 protein level): strongly upregulated
  effect of inhibition of mir-145 (sh-mir-145) on compound-induced CXCR4 expression: did not affect
[3]
  YTHDF2 expression: downregulated
[4]
  mir-145 expression: strongly upregulated

## O=C(c1ccc(OCCN2CCCCC2)cc1)c1c(-c2ccc(O)cc2)sc2cc(O)ccc12 [Raloxifene]
[2]
  CXCR4 expression (MFI of cell surface CXCR4 protein level): strongly upregulated
  effect of inhibition of mir-145 (sh-mir-145) on compound-induced CXCR4 expression: significantly blocked
[3]
  YTHDF2 expression: downregulated
[4]
  mir-145 expression: strongly upregulated
[1]; Raloxifene 40 μM
  chemotaxis of human CB CD34+ cells toward SDF-1: significantly enhanced
[5]; Raloxifene 40 μM
  migration to SDF-1 in phenotypic HSC population: Enhanced migration
[8]
  homing efficiency (human CD45+ cells in BM): dramatically increased
[6]; Raloxifene 40 μM
  colony output vs control group: no significant difference
[7]; Raloxifene 40 μM
  engraftment in NSG mice vs vehicle control (human CD45+ cells in BM): significantly elevated
[7]; Raloxifene-treated cells
  human myeloid and B-cell chimerism in BM: increased
  engraftment in secondary recipients vs vehicle: Enhanced engraftment
  SRC frequency (Poisson distribution analysis): 1/1818
